Experimental data as given in the NIST ThermoML archive (doi:10.1021/je5010214).
± gives the expanded uncertainty stated by the source.

Conditions: Liquid, Vibrating tube method

CC(C)CO [2-methyl-1-propanol]
Conditions | mass density [kg/m3]
343.15 K, 50016 kPa | 802.401 ± 0.92
343.15 K, 52079 kPa | 803.724 ± 0.93
343.15 K, 54997 kPa | 805.581 ± 0.93
343.15 K, 57987 kPa | 807.46 ± 0.94
343.15 K, 62074 kPa | 809.959 ± 0.95
343.15 K, 65051 kPa | 811.734 ± 0.96
343.15 K, 66170 kPa | 812.401 ± 0.96
343.16 K, 60015 kPa | 808.691 ± 0.95
348.15 K, 94 kPa | 756.672 ± 0.81
348.15 K, 293.8 kPa | 756.914 ± 0.81
348.15 K, 481.9 kPa | 757.128 ± 0.81
348.15 K, 763.5 kPa | 757.435 ± 0.81
348.15 K, 1011 kPa | 757.701 ± 0.81
348.15 K, 1981.1 kPa | 758.826 ± 0.81
348.15 K, 3073.2 kPa | 759.88 ± 0.81
348.15 K, 5089.9 kPa | 762.131 ± 0.82
348.15 K, 7034.6 kPa | 764.092 ± 0.82
348.15 K, 9052.5 kPa | 766.106 ± 0.82
348.15 K, 9991.3 kPa | 767.026 ± 0.82
348.15 K, 15042 kPa | 771.822 ± 0.83
348.15 K, 17922 kPa | 774.408 ± 0.84
348.15 K, 19893 kPa | 776.137 ± 0.84
348.15 K, 22033 kPa | 777.985 ± 0.85
348.15 K, 22381 kPa | 778.265 ± 0.85
348.15 K, 28023 kPa | 782.927 ± 0.86
348.15 K, 29922 kPa | 784.471 ± 0.87
348.15 K, 33999 kPa | 787.493 ± 0.88
348.15 K, 34980 kPa | 788.228 ± 0.88
348.15 K, 37995 kPa | 790.467 ± 0.89
348.15 K, 40072 kPa | 791.973 ± 0.9
348.15 K, 41992 kPa | 793.388 ± 0.9
348.15 K, 45082 kPa | 795.525 ± 0.91
348.15 K, 48031 kPa | 797.589 ± 0.92
348.15 K, 52067 kPa | 800.261 ± 0.93
348.15 K, 55099 kPa | 802.242 ± 0.94
348.15 K, 60084 kPa | 805.42 ± 0.95
348.15 K, 62302 kPa | 806.758 ± 0.96
348.15 K, 65219 kPa | 808.569 ± 0.97
348.15 K, 66250 kPa | 809.201 ± 0.97
348.16 K, 12060 kPa | 769.03 ± 0.83
348.16 K, 25066 kPa | 780.513 ± 0.86
348.16 K, 32007 kPa | 786.046 ± 0.87
348.16 K, 32760 kPa | 786.619 ± 0.88
348.16 K, 32941 kPa | 786.66 ± 0.88
348.16 K, 50014 kPa | 798.878 ± 0.92
348.16 K, 58146 kPa | 804.186 ± 0.95
353.15 K, 98.1 kPa | 752.221 ± 0.81
353.15 K, 305.8 kPa | 752.433 ± 0.81
353.15 K, 384 kPa | 752.511 ± 0.81
353.15 K, 558.5 kPa | 752.696 ± 0.81
353.15 K, 929.4 kPa | 753.125 ± 0.81
353.15 K, 1073.7 kPa | 753.289 ± 0.81
353.15 K, 2082.7 kPa | 754.432 ± 0.81
353.15 K, 3025.9 kPa | 755.465 ± 0.81
353.15 K, 5017.9 kPa | 757.656 ± 0.82
353.15 K, 6957.8 kPa | 759.69 ± 0.82
353.15 K, 8976.6 kPa | 761.781 ± 0.82
353.15 K, 9990.3 kPa | 762.812 ± 0.82
353.15 K, 11934 kPa | 764.803 ± 0.83
353.15 K, 14917 kPa | 767.603 ± 0.83
353.15 K, 18020 kPa | 770.471 ± 0.84
353.15 K, 19983 kPa | 772.259 ± 0.85
353.15 K, 22060 kPa | 773.965 ± 0.85
353.15 K, 24899 kPa | 776.429 ± 0.86
353.15 K, 27951 kPa | 778.961 ± 0.86
353.15 K, 29947 kPa | 780.584 ± 0.87
353.15 K, 31942 kPa | 782.185 ± 0.88
353.15 K, 32982 kPa | 782.978 ± 0.88
353.15 K, 33037 kPa | 783.002 ± 0.88
353.15 K, 33907 kPa | 783.604 ± 0.88
353.15 K, 35053 kPa | 784.493 ± 0.88
353.15 K, 37939 kPa | 786.664 ± 0.89
353.15 K, 39830 kPa | 788.076 ± 0.9
353.15 K, 41863 kPa | 789.556 ± 0.9
353.15 K, 44753 kPa | 791.642 ± 0.91
353.15 K, 47880 kPa | 793.816 ± 0.92
353.15 K, 49780 kPa | 795.14 ± 0.93
353.15 K, 51876 kPa | 796.535 ± 0.93
353.15 K, 55023 kPa | 798.765 ± 0.94
353.15 K, 55678 kPa | 799.178 ± 0.94
353.15 K, 57869 kPa | 800.594 ± 0.95
353.15 K, 59971 kPa | 801.962 ± 0.96
353.15 K, 62015 kPa | 803.245 ± 0.96
353.15 K, 64989 kPa | 805.09 ± 0.97
353.15 K, 66151 kPa | 805.82 ± 0.97
358.15 K, 91.6 kPa | 747.694 ± 0.81
358.15 K, 304.9 kPa | 747.895 ± 0.81
358.15 K, 517.3 kPa | 748.147 ± 0.81
358.15 K, 850.1 kPa | 748.568 ± 0.81
358.15 K, 1095.5 kPa | 748.835 ± 0.81
358.15 K, 2101.6 kPa | 750.029 ± 0.81
358.15 K, 3210.6 kPa | 751.303 ± 0.81
358.15 K, 5324.2 kPa | 753.465 ± 0.82
358.15 K, 7190.1 kPa | 755.483 ± 0.82
358.15 K, 9074.3 kPa | 757.505 ± 0.82
358.15 K, 10165 kPa | 758.644 ± 0.83
358.15 K, 12208 kPa | 760.738 ± 0.83
358.15 K, 13986 kPa | 762.552 ± 0.83
358.15 K, 15000 kPa | 763.577 ± 0.84
358.15 K, 17866 kPa | 766.293 ± 0.84
358.15 K, 20104 kPa | 768.379 ± 0.85
358.15 K, 27962 kPa | 775.177 ± 0.87
358.15 K, 30131 kPa | 776.699 ± 0.87
358.15 K, 32076 kPa | 778.299 ± 0.88
358.15 K, 32938 kPa | 778.904 ± 0.88
358.15 K, 33039 kPa | 779.08 ± 0.88
358.15 K, 33914 kPa | 779.672 ± 0.88
358.15 K, 34978 kPa | 780.53 ± 0.89
358.15 K, 37986 kPa | 782.876 ± 0.9
358.15 K, 39996 kPa | 784.402 ± 0.9
358.15 K, 42079 kPa | 785.976 ± 0.91
358.15 K, 45119 kPa | 788.207 ± 0.92
358.15 K, 48100 kPa | 790.343 ± 0.93
358.15 K, 49987 kPa | 791.672 ± 0.93
358.15 K, 52101 kPa | 793.112 ± 0.94
358.15 K, 54983 kPa | 795.084 ± 0.95
358.15 K, 58017 kPa | 797.106 ± 0.95
358.15 K, 60055 kPa | 798.438 ± 0.96
358.15 K, 62083 kPa | 799.766 ± 0.97
358.15 K, 65016 kPa | 801.626 ± 0.98
358.15 K, 66339 kPa | 802.467 ± 0.98
358.16 K, 22005 kPa | 770.073 ± 0.85
358.16 K, 25079 kPa | 772.781 ± 0.86
363.15 K, 53.2 kPa | 742.307 ± 0.81
363.15 K, 125.5 kPa | 742.405 ± 0.81
363.15 K, 320.3 kPa | 742.647 ± 0.81
363.15 K, 562.5 kPa | 742.935 ± 0.81
363.15 K, 892.5 kPa | 743.339 ± 0.81
363.15 K, 1001.3 kPa | 743.446 ± 0.81
363.15 K, 1911.6 kPa | 744.576 ± 0.81
363.15 K, 2977.3 kPa | 745.832 ± 0.81
363.15 K, 4957.5 kPa | 748.169 ± 0.82
363.15 K, 6937.4 kPa | 750.436 ± 0.82
363.15 K, 8892.9 kPa | 752.564 ± 0.82
363.15 K, 10033 kPa | 753.801 ± 0.83
363.15 K, 11914 kPa | 755.769 ± 0.83
363.15 K, 14908 kPa | 758.826 ± 0.84
363.15 K, 17925 kPa | 761.773 ± 0.84
363.15 K, 19995 kPa | 763.754 ± 0.85
363.15 K, 21953 kPa | 765.578 ± 0.85
363.15 K, 24962 kPa | 768.273 ± 0.86
363.15 K, 27932 kPa | 770.858 ± 0.87
363.15 K, 30163 kPa | 772.879 ± 0.88
363.15 K, 32029 kPa | 774.439 ± 0.88
363.15 K, 33151 kPa | 775.369 ± 0.88
363.15 K, 33315 kPa | 775.421 ± 0.88
363.15 K, 34086 kPa | 776.049 ± 0.89
363.15 K, 35189 kPa | 776.934 ± 0.89
363.15 K, 37932 kPa | 779.076 ± 0.9
363.15 K, 40070 kPa | 780.754 ± 0.9
363.15 K, 41883 kPa | 782.107 ± 0.91
363.15 K, 44755 kPa | 784.308 ± 0.92
363.15 K, 48054 kPa | 786.713 ± 0.93
363.15 K, 50037 kPa | 788.134 ± 0.94
363.15 K, 51977 kPa | 789.492 ± 0.94
363.15 K, 55048 kPa | 791.627 ± 0.95
363.15 K, 57990 kPa | 793.615 ± 0.96
363.15 K, 60071 kPa | 794.972 ± 0.97
363.15 K, 62073 kPa | 796.302 ± 0.97
363.15 K, 64996 kPa | 798.178 ± 0.98
363.15 K, 66050 kPa | 798.847 ± 0.98
